These results are taken from PubChem BioAssay AID256 (DTP/NCI, 2004).

The subject of the assay is CD2F1 mice, L1210 leukemia ip, survival T/C. Nature of the assay: NCI In Vivo Anticancer Drug Screen. Data for tumor model L1210 Leukemia (intraperitoneal) in CD2F1 (CDF1) mice. The settings on record: higher = longer survival. The method in brief: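 Vehicle-treated tumor-bearing mice served as controls (C) for compound-treated mice (T). Reported figure is T divided by C.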

The mark [1] stands for this setting: endpoint: mean survival time, dose: 25.0 mg/kg/injection, schedule: Q04DX003 (ip), vehicle: saline.
[2] abbreviates: endpoint: mean survival time, dose: 200.0 mg/kg/injection, schedule: Q04DX003 (ip), vehicle: saline.
The mark [3] stands for this setting: endpoint: mean survival time, dose: 100.0 mg/kg/injection, schedule: Q01DX009 (ip), vehicle: saline with Tween-80.
The mark [4] stands for this setting: endpoint: mean survival time, dose: 200.0 mg/kg/injection, schedule: Q01DX009 (ip), vehicle: saline with Tween-80.
[5] abbreviates: endpoint: mean survival time, dose: 50.0 mg/kg/injection, schedule: Q01DX009 (ip), vehicle: saline with Tween-80.
Setting [6] is: endpoint: mean survival time, dose: 100.0 mg/kg/injection, schedule: Q04DX003 (ip), vehicle: saline with Tween-80.
[7] abbreviates: endpoint: mean survival time, dose: 200.0 mg/kg/injection, schedule: Q04DX003 (ip), vehicle: saline with Tween-80.
Where [8] appears, read: endpoint: mean survival time, dose: 400.0 mg/kg/injection, schedule: Q04DX003 (ip), vehicle: saline with Tween-80.

“And” between values parts separate entries of the source, which are not always exact repeats. Equal entries are not always repeated. Inconclusive results and toxic doses are left out.

For the compound `CCCCN=C=C(c1ccccc1)c1ccccc1`, the T/C is 97 % of control (endpoint: mean survival time, dose: 25.0 mg/kg/injection, schedule: Q04DX002 (ip), vehicle: other); 86 % of control (endpoint: mean survival time, dose: 50.0 mg/kg/injection, schedule: Q04DX002 (ip), vehicle: other); 89 % of control (endpoint: mean survival time, dose: 100.0 mg/kg/injection, schedule: Q04DX002 (ip), vehicle: other).

Take `[Cl][Pt+2][Cl].[NH-]CC(C[NH-])(Cc1ccccc1)Cc1ccccc1`: the T/C is, setting by setting: (endpoint: mean survival time, dose: 3.12 mg/kg/injection, schedule: Q04DX003 (ip), vehicle: saline) 97 % of control; (endpoint: mean survival time, dose: 6.25 mg/kg/injection, schedule: Q04DX003 (ip), vehicle: saline) 103 % of control and 111 % of control; (endpoint: mean survival time, dose: 12.5 mg/kg/injection, schedule: Q04DX003 (ip), vehicle: saline) 115 % of control and 111 % of control; under setting [1], 115 % of control; under setting [2], 172 % of control.

Regarding `CC1CC(O)C(=O)C(O[C@@H]2C[C@@H]3CC[C@@H]4[C@H](CC[C@]5(C)C(C6=CC(=O)OC6)CC[C@]45O)[C@@]3(C=O)C[C@H]2O)O1` (some centres not stated), the T/C is, setting by setting: (endpoint: mean survival time, dose: 6.25 mg/kg/injection, schedule: Q01DX001 (ip), vehicle: saline with Tween-80) 104 % of control; (endpoint: mean survival time, dose: 12.5 mg/kg/injection, schedule: Q01DX001 (ip), vehicle: saline with Tween-80) 104 % of control.

With `COc1ccc(/C(C)=N/N=C\c2cc(OC)c(OC)c(OC)c2)cc1`, the T/C reads like this: under setting [3], 91 % of control; under setting [4], 89 % of control; (endpoint: mean survival time, dose: 400.0 mg/kg/injection, schedule: Q01DX009 (ip), vehicle: saline with Tween-80) 88 % of control.

As for `O=S(=O)(O)O.[NH2-].[NH2-].[Pt+2]`, the T/C was 98 % of control (endpoint: mean survival time, dose: 0.63 mg/kg/injection, schedule: Q04DX003 (ip), vehicle: dextrose); 108 % of control (endpoint: mean survival time, dose: 1.25 mg/kg/injection, schedule: Q04DX003 (ip), vehicle: dextrose); 95 % of control (endpoint: mean survival time, dose: 5.0 mg/kg/injection, schedule: Q04DX003 (ip), vehicle: dextrose).

Take `CCN(CC)CCN1CC2CCCCC2C1` (configuration not stated): the T/C was 100 % of control (endpoint: mean survival time, dose: 25.0 mg/kg/injection, schedule: Q01DX009 (ip), vehicle: saline with Tween-80); 100 % of control under setting [5]; 98 % of control and 102 % of control under setting [3].

Consider `CCOc1cccc(Cc2c[nH]c(=O)[nH]c2=O)c1`, for which the T/C (endpoint: mean survival time, dose: 100.0 mg/kg/injection, schedule: Q01DX001 (ip), vehicle: saline with Tween-80) was 90 % of control; the T/C (endpoint: mean survival time, dose: 200.0 mg/kg/injection, schedule: Q01DX001 (ip), vehicle: saline with Tween-80) was 100 % of control; the T/C (endpoint: mean survival time, dose: 400.0 mg/kg/injection, schedule: Q01DX001 (ip), vehicle: saline with Tween-80) is 89 % of control.

In the case of `O=C(O)C(=O)C(O)C(O)C(O)CO.O=C(O)C(=O)C(O)C(O)C(O)CO.[NH-]C1CCCCC1[NH-].[Pt+2]` (configuration not stated), the T/C reads like this: (endpoint: median survival time, dose: 3.12 mg/kg/injection, schedule: Q04DX003 (ip), vehicle: saline) 110 % of control and 111 % of control; (endpoint: median survival time, dose: 6.25 mg/kg/injection, schedule: Q04DX003 (ip), vehicle: saline) 115 % of control and 112 % of control; (endpoint: median survival time, dose: 12.5 mg/kg/injection, schedule: Q04DX003 (ip), vehicle: saline) 122 % of control; (endpoint: median survival time, dose: 50.0 mg/kg/injection, schedule: Q04DX003 (ip), vehicle: saline) 185 % of control and 188 % of control; (endpoint: median survival time, dose: 100.0 mg/kg/injection, schedule: Q04DX003 (ip), vehicle: saline) 250 % of control and 270 % of control; (endpoint: median survival time, dose: 200.0 mg/kg/injection, schedule: Q04DX003 (ip), vehicle: saline) 175 % of control.

For `O=C(O)c1cccc(F)c1Cl`, the T/C is, setting by setting: (endpoint: mean survival time, dose: 100.0 mg/kg/injection, schedule: Q04DX002 (ip), vehicle: saline with Tween-80) 95 % of control; (endpoint: mean survival time, dose: 200.0 mg/kg/injection, schedule: Q04DX002 (ip), vehicle: saline with Tween-80) 102 % of control.

In the case of `CCc1cc(C)cc(OC(=O)Nc2cccc(Cl)c2)c1`, the T/C is, setting by setting: under setting [6], 88 % of control; under setting [7], 92 % of control; under setting [8], 92 % of control.

Consider `Cc1ccc(S(=O)(=O)CC(=O)O)cc1`, for which the T/C runs as follows: under setting [6], 102 % of control; under setting [7], 102 % of control.

Turning to `O=NN(CCSCCCCl)C(=O)NC1CCCCC1`, the T/C by setting is: (endpoint: mean survival time, dose: 6.25 mg/kg/injection, schedule: Q01DX001 (ip), vehicle: distilled water + Tween-80) 96 % of control; (endpoint: mean survival time, dose: 12.5 mg/kg/injection, schedule: Q01DX001 (ip), vehicle: distilled water + Tween-80) 96 % of control; (endpoint: mean survival time, dose: 25.0 mg/kg/injection, schedule: Q01DX001 (ip), vehicle: distilled water + Tween-80) 101 % of control; (endpoint: mean survival time, dose: 50.0 mg/kg/injection, schedule: Q01DX001 (ip), vehicle: distilled water + Tween-80) 102 % of control; (endpoint: mean survival time, dose: 100.0 mg/kg/injection, schedule: Q01DX001 (ip), vehicle: distilled water + Tween-80) 101 % of control; (endpoint: mean survival time, dose: 200.0 mg/kg/injection, schedule: Q01DX001 (ip), vehicle: distilled water + Tween-80) 102 % of control. The T/C (endpoint: mean survival time, dose: 400.0 mg/kg/injection, schedule: Q01DX001 (ip), vehicle: distilled water + Tween-80) was 118 % of control.

`C[Si](C)(C)NP(=O)(Oc1ccc([N+](=O)[O-])cc1)Oc1ccc([N+](=O)[O-])cc1`: the T/C was 110 % of control (endpoint: mean survival time, dose: 15.6 mg/kg/injection, schedule: Q01DX001 (ip), vehicle: other); 97 % of control (endpoint: mean survival time, dose: 31.3 mg/kg/injection, schedule: Q01DX001 (ip), vehicle: other); 102 % of control and 108 % of control (endpoint: mean survival time, dose: 62.5 mg/kg/injection, schedule: Q01DX001 (ip), vehicle: other); 87 % of control and 94 % of control (endpoint: mean survival time, dose: 125.0 mg/kg/injection, schedule: Q01DX001 (ip), vehicle: other).

Consider `O=CC(O)C(O)C(O)C(O)C(=O)O.[NH-]CC1CCCCC1[NH-].[Pt+2]` (configuration not stated), for which the T/C is 118 % of control (endpoint: mean survival time, dose: 1.88 mg/kg/injection, schedule: Q04DX003 (ip), vehicle: saline); 156 % of control (endpoint: mean survival time, dose: 7.5 mg/kg/injection, schedule: Q04DX003 (ip), vehicle: saline); 166 % of control and 253 % of control (endpoint: mean survival time, dose: 15.0 mg/kg/injection, schedule: Q04DX003 (ip), vehicle: saline); 151 % of control (endpoint: mean survival time, dose: 30.0 mg/kg/injection, schedule: Q04DX003 (ip), vehicle: saline).

Turning to `CC(=O)C(=O)C1=C2CCCN2CCc2cc3c(cc21)OCO3`, the T/C by setting is: (endpoint: mean survival time, dose: 12.5 mg/kg/injection, schedule: Q01DX009 (ip), vehicle: water) 96 % of control; (endpoint: mean survival time, dose: 25.0 mg/kg/injection, schedule: Q01DX009 (ip), vehicle: water) 94 % of control; (endpoint: mean survival time, dose: 50.0 mg/kg/injection, schedule: Q01DX009 (ip), vehicle: water) 91 % of control; (endpoint: mean survival time, dose: 100.0 mg/kg/injection, schedule: Q01DX009 (ip), vehicle: water) 96 % of control.

On to `COC(=O)c1ccc(SSc2ccc(C(=O)OC)cc2[N+](=O)[O-])c([N+](=O)[O-])c1`, for which the T/C was 103 % of control under setting [6], 96 % of control under setting [7] and 96 % of control under setting [8].

As for `C=C1C(=O)O[C@@H]2C[C@@H](C)[C@@H]3C=CC(=O)[C@@]3(C)[C@@H](O)[C@H]12`, the T/C (endpoint: mean survival time, dose: 8.0 mg/kg/injection, schedule: Q04DX003 (ip), vehicle: saline with Tween-80) is 117 % of control.

As for `O=C(C[n+]1cccc(C(=O)Nc2ccccc2)c1)NCc1ccccc1`, the T/C is, setting by setting: (endpoint: mean survival time, dose: 100.0 mg/kg/injection, schedule: Q04DX003 (ip), vehicle: saline) 100 % of control; under setting [2], 96 % of control; (endpoint: mean survival time, dose: 400.0 mg/kg/injection, schedule: Q04DX003 (ip), vehicle: saline) 96 % of control.

`CN(C)CC(C)(C)C(=O)c1ccc(F)cc1`: the T/C reads like this: (endpoint: mean survival time, dose: 12.5 mg/kg/injection, schedule: Q04DX002 (ip), vehicle: saline) 104 % of control; (endpoint: mean survival time, dose: 25.0 mg/kg/injection, schedule: Q04DX002 (ip), vehicle: saline) 101 % of control; (endpoint: mean survival time, dose: 50.0 mg/kg/injection, schedule: Q04DX002 (ip), vehicle: saline) 96 % of control.

As to `COc1ccc(NC(=O)C(Cl)Cl)ccc1=O`, the T/C was 96 % of control under setting [3]; 97 % of control under setting [6]; 95 % of control under setting [4]; 92 % of control under setting [7]; 98 % of control under setting [8].

Take `CN(C)CCCNC(=S)S`: the T/C was 95 % of control (endpoint: mean survival time, dose: 6.0 mg/kg/injection, schedule: Q04DX003 (ip), vehicle: saline); 93 % of control (endpoint: mean survival time, dose: 12.0 mg/kg/injection, schedule: Q04DX003 (ip), vehicle: saline); 106 % of control under setting [1].

Consider `O=C(O)C1C2c3cccc4cccc(c34)C12` (configuration not stated), for which the T/C reads like this: under setting [5], 101 % of control; under setting [3], 97 % of control; under setting [6], 101 % of control; under setting [4], 109 % of control; under setting [7], 101 % of control.
